Source: patent publication US20250228806A1, “AMPK ACTIVATOR, MOTOR FUNCTION IMPROVING AGENT, MUSCULAR ENDURANCE IMPROVING AGENT, AND MUSCLE ATROPHY PREVENTING AGENT” (MARUZEN PHARMACEUTICALS CO., LTD., priority 2021, published 2025)

Columns and labels:
rat muscle atrophy model = assay: Muscle atrophy preventing action test (hindlimb suspension); type: in vivo
Experimental: Using the compound (I) (Sample 1), the muscle atrophy preventing action on a rat muscle atrophy model was tested in the following manner. Eight-week-old male Crlj:WI rats (purchased from Charles River Laboratories Japan, Inc.) were reared in an maintained environment of controlled temperature: 20.0-26.0° C., controlled humidity: 40.0-70.0% RH, light and dark for 12 hours each, and ventilation frequency: 12 times/hour. During the rearing period, solid feed (CRF-1, available from Oriental Yeast Co., Ltd.) was placed in a feeder and consumed ad libitum. However, during the hindlimb suspension rearing period described below, the rats were allowed to consume the feed by scattering it on the floor. For drinking water, tap water was available ad libitum using a water bottle. After a 5-day quarantine period and a 2-day acclimatization period, the rats were grouped with 8 rats per group as listed in Table 1 by random sampling so that the average weight and variance of each group were approximately equal. The rats were put into a state in which the tails of the rats were attached to a rail on the ceiling with a rat tail suspension clip and the hindlimbs of the rats were off the floor (hindlimb suspension), and muscle atrophy was induced in this state by rearing the rats for 14 days after the grouping on the grouping day. During the period of rearing with suspended hindlimbs, the rats were able to move within the rearing cage using their forelimbs, and were able to freely consume water and feed. The compound (I) (Sample 1) was dissolved in water for injection and administered orally by force using a syringe to which a feeding needle was attached. The grouping day was taken as the first day (day 1 of administration), the administration was performed once a day for 14 days, and the day after the 14th day of administration (day 15 of administration) was the last day of the rearing period. On the last day of the hindlimb suspension rearing (day 15 of administration), blood was collected from the abdominal aorta using a heparin-Na treated vacuum blood collection tube and a winged intravenous needle under isoflurane anesthesia. After blood collection, the rats were euthanized by exsanguination from the abdominal aorta, and the right and left gastrocnemius and soleus muscles were extracted. The extracted gastrocnemius and soleus muscles were weighed separately on the right and left sides (the values in Table 2 are the total values).

[1] = tested on: MuRF-1 (Gene Symbol: Trim63); assay: Gene expression analysis (real-time PCR) in gastrocnemius muscle of muscle atrophy model: MuRF-1; type: in vivo, rat
Experimental: (§1) A gene expression analysis test using real-time PCR was conducted on the gastrocnemius muscle extracted in Testing Example 1 above. The tissue of the gastrocnemius muscle extracted in Testing Example 1 above was fragmented, and total RNA was extracted using RNeasy® Lipid Tissue Mini Kit (available from Qiagen). The obtained total RNA was quantified using a spectrophotometer, and the total RNA was prepared to be 71.4 ng/μL. Using 1000 ng of the total RNA as a template, a reverse transcription reaction was performed using SuperScript® VILO™ CDNA Synthesis Kit (available from Thermo Fisher Scientific). The reaction solution was 20 μL, and the operation was based on the manual attached to the above kit. […] Assay mixes corresponding to the genes to be analyzed were prepared for respective genes using corresponding Taqman® Gene Expression Assays (the assay ID for each gene is described previously). […] After the reaction was completed, the Ct value was calculated using analysis software (Fluidigm Real Time PCR Analysis 4.5.2, available from Fluidigm). The obtained Ct value of each gene was standardized with the Ct value of the internal standard gene GAPDH, and the relative value was calculated when the first group (control group) was set as the standard (1.00).

IL-6 (Gene Symbol: Il6) = assay: Gene expression analysis (real-time PCR) in gastrocnemius muscle of muscle atrophy model: IL-6; type: in vivo, rat
Experimental: as §1

[2] = tested on: Atrogin-1 (Gene Symbol: Fbxo32); assay: Gene expression analysis (real-time PCR) in gastrocnemius muscle of muscle atrophy model: Atrogin-1; type: in vivo, rat
Experimental: as §1

Akt = assay: Kinase activation analysis in muscle atrophy model: Akt phosphorylation (Luminex); type: in vivo, rat; conditions: gastrocnemius muscle
Experimental: (§2) For the gastrocnemius muscle extracted in Testing Example 1 above, the phosphorylation state of AMPK and Akt, which are kinases contributing to increase in muscle mass, was evaluated by Luminex measurement and ELISA measurement.
(§3) The tissue of the gastrocnemius muscle extracted in Testing Example 1 above was fragmented, and a tissue extract was collected. The total protein concentration was quantified and used for Luminex measurement and ELISA measurement described below so that the total protein amount was 10 μg per well.
For Akt, MILLIPLEX® MAP Phospho/Total Akt 2-Plex Magnetic Bead Kit 96-well Plate Assay (available from EMD Millipore, catalog number: 48-618MAG) was used to measure the total Akt amount (t-Akt) and the phosphorylated Akt (p-Akt, Ser473) all at once in one reaction system.
(§4) As an internal standard, GAPDH was measured using Total GAPDH Magnetic Bead MAPmate™ (available from EMD Millipore, catalog number: 46-667MAG), and the measured values of the above AMPK and Akt were standardized.

[3] = tested on: GLUT4 (Gene Symbol: Slc2a4); assay: Gene expression analysis (real-time PCR) in gastrocnemius muscle of muscle atrophy model: GLUT4; type: in vivo, rat
Experimental: as §1

AMPK = assay: Kinase activation analysis in muscle atrophy model: AMPK phosphorylation (ELISA); type: in vivo, rat; conditions: gastrocnemius muscle
Experimental: as §2, §3
For AMPK, PathScan® Total AMPKα Sandwich ELISA Kit (available from Cell Signaling Technology, catalog number: 7961C) was used to measure the total AMPK (t-AMPK), and PathScan® Phospho-AMPKα (Thr172) ELISA Sandwich Kit (available from Cell Signaling Technology, catalog number: 7959C) was used to measure the Thr172 phosphorylated AMPK (p-AMPK).
as §4

[4] = tested on: PGC-1α (Gene Symbol: Ppargc1a); assay: Gene expression analysis (real-time PCR) in gastrocnemius muscle of muscle atrophy model: PGC-1α; type: in vivo, rat
Experimental: as §1

[5] = administration group 125 mg/kg vs control group
[6] = 125 mg/kg orally 14 days, standardized with GAPDH

- phosphorylated form of Akt compared to control group (in words) (Akt; administration group 125 mg/kg): tendency to increase
- phosphorylated form of AMPK compared to control group (in words) (AMPK; administration group 125 mg/kg): tendency to increase
SMILES: COc1cc(CCC(=O)O)ccc1O [compound (I), 3-(4-hydroxy-3-methoxyphenyl) propionic acid]
- difference in body weight between groups (in words) (rat muscle atrophy model; [5]): no difference was observed
- weight of the gastrocnemius muscle compared to control group (in words) (rat muscle atrophy model; [5]): increased
- weight of the soleus muscle compared to control group (in words) (rat muscle atrophy model; [5]): increased
- muscle mass (in words) (rat muscle atrophy model; administration of 125 mg/kg, rat muscle atrophy model): increased
- Gastrocnemius muscle (total of right and left) weight (rat muscle atrophy model; hindlimb-suspended rats, 125 mg/kg orally once a day for 14 days, day 15, control 2.50): 2.69 g
- Soleus muscle (total of right and left) weight (rat muscle atrophy model; hindlimb-suspended rats, 125 mg/kg orally once a day for 14 days, day 15, control 130.3): 149.1 mg
- Body weight (rat muscle atrophy model; hindlimb-suspended rats, 125 mg/kg orally once a day for 14 days, day 15, control 310): 309 g
- MuRF-1 (Trim63) gene expression, relative value (control group = 1.00) [1, 6]: 0.81
- MuRF-1 gene expression compared to control group (in words) ([1]; administration group 125 mg/kg): tendency to decrease
- IL-6 (Il6) gene expression, relative value (control group = 1.00) (IL-6 (Gene Symbol: Il6); [6]): 1.10
- IL-6 gene expression compared to control group (in words) (IL-6 (Gene Symbol: Il6); administration group 125 mg/kg): tendency to increase
- Atrogin-1 (Fbxo32) gene expression, relative value (control group = 1.00) [2, 6]: 0.68
- Atrogin-1 gene expression compared to control group (in words) ([2]; administration group 125 mg/kg): tendency to decrease
- p-Akt/t-Akt (Akt; 125 mg/kg orally 14 days, Ser473, standardized with GAPDH, control group 100.0): 172.9
- GLUT4 (Slc2a4) gene expression, relative value (control group = 1.00) [3, 6]: 1.13
- GLUT4 gene expression compared to control group (in words) ([3]; administration group 125 mg/kg): tendency to increase
- p-AMPK/t-AMPK (AMPK; 125 mg/kg orally 14 days, Thr172, standardized with GAPDH, control group 100.0): 120.8
- PGC-1α (Ppargc1a) gene expression, relative value (control group = 1.00) [4, 6]: 1.28
- PGC-1α gene expression compared to control group (in words) ([4]; administration group 125 mg/kg): tendency to increase
